Measured values as given in patent US8883790B2, “Pharmaceutical combinations” (Astex Therapeutics Limited, priority 2006, dated 2014).
Counter-ions that a name gives are not always drawn. Values belong to the compound of their own block, whether it stands above or below them.

Tests used:
[1] = Solid-state and dissolution properties of the L-lactate salt of the compound of formula (1) and its crystalline forms; type: physicochemical; conditions: for stability of crystalline form: crystalline forms of the L-lactate salt of the compound of formula (1)
Text: The lactic acid salts of the compound of formula (1) exist in one unstable form (FL3) and two stable forms (FL1 and FL2).

[2] = type: physicochemical
Text: Samples for X-ray powder diffraction (XRPD) data collection were gently ground by marble mortar and loaded into a crystallographic capillary (from Hampton Research, Quartz or Glass Type 10, 0.4 or 0.7 mm diameter). Diffraction patterns were collected at room temperature using CuKa radiation (λ=1.5418 Å) from a Rigaku rotating anode RU3HR, Osmic blue confocal optics, ¼ c goniometer and a Rigaku HTC image plate detector. 2D Images were collected while spinning φ axis with a detector to crystal distance of 250 mm. Data collection was controlled by CrystalClear software and 2D images were converted to 1D plot (20 vs. Intensity) by Datasqueeze (intensity averaged over the azimuthal angle 0<χ<360° for 2θ range 3-30° in 0.02° steps). In house program AstexXRPD was used for manipulation and visualisation of 1D XRPD patterns.
It is nominally a tri-hydrate because there are 3 crystal water positions in the asymmetric unit, but they are not 100% occupied at room temperature and laboratory humidity. A saturated solution of form FL1 in methanol:water 9:1 was prepared at room temperature. Slow precipitation with approximately 4 volumes of acetone gave form FL2 which is stable in air.
A saturated solution of form FL1 in THF was prepared at room temperature. Slow precipitation with approximately 4 volumes of heptane gave form FL3.

PKG = conditions: cited from earlier work
PKC = conditions: cited from earlier work
OVCAR-3 tumour cells = OVCAR-3 tumour cells in which PKB is amplified; concentrations of 50 and 100 microM; cited from earlier work
[3] = antitumour agent; cited from earlier work
HCT116 cell line = assay: Anti-proliferative activity, Alamar Blue assay; type: cell-based; conditions: Homo sapiens, HCT-116, 72 h
Description: The anti-proliferative activities of compounds for use in the combinations of the invention can be determined by measuring the ability of the compounds to inhibition of cell growth in a number of cell lines such as the human colon cancer cell line HCT116. […] The method is based on the ability of viable cells to reduce resazurin to its fluorescent product resorufin. […] The number of viable cells is determined by Alamar Blue assay as before. Cell lines can be obtained from the ECACC (European Collection of cell Cultures).

tubulin = conditions: relative to epothilone A or paclitaxel; cited from earlier work
[4] = Physicochemical properties of the crystalline lactate salt of compound (AA)
[5] = test system: P-glycoprotein-overexpressing subline of CCRF-CEM; conditions: cited from earlier work
[6] = Solubility of acid addition salts in a liquid carrier (e.g. water); conditions: salts of 1-(2,6-difluorophenyl)-N-[3-(5-morpholin-4-ylmethyl-1H-benzimidazol-2-yl)-1H-pyrazol-4-yl]-urea
[7] = mice; doses 10 times more than were needed for antitumour activity; cited from earlier work
[8] = test system: Acute Promyelocytic Leukemia (APL); conditions: APL patients; cited from earlier work
[9] = clinical studies; cited from earlier work
[10] = molecular target: T1, Human Hsp90a N-terminal domain (Homo sapiens, UniProt P07900); assay: Isothermal titration calorimetry (ITC) binding to human Hsp90; conditions: pH 7.4
T1 construct: purification of the Human Hsp90a N-terminal domain; made in house
Description: The ability of the compounds for use in the combinations of the invention to bind to human Hsp90 proteins was determined using isothermal titration calorimetry.
Isothermal titration calorimetry (ITC) experiments were performed with a VP-ITC titration calorimeter (Microcal Inc., Northampton, Mass., USA). […] All solutions were filtered and degassed prior to a titration being carried out. The enthalpy change resulting from each injection of ligand was obtained through integration of the calorimetric signal. Data were analysed using Origin 7.0 (Microcal Software Inc., Northampton, Mass.). Heats of dilution were estimated using the final injections of each individual titration and subtracted before data fitting. Different ITC experimental formats were employed in order to obtain compound dissociation constants (Kd's) over a wide range of affinities. […] In this type of experiment the stoichiometry parameter (N) was locked at 1 for data fitting.

[11] = lactate (particularly L-lactate) salt of compound (AA)

stability of crystalline form [1]: stable hydrate | Stability of crystal form [2]: stable in air
Compound: CC(C)c1cc(C(=O)N2Cc3ccc(CN4CCN(C)CC4)cc3C2)c(O)cc1O [FL2, (2,4-dihydroxy-5-isopropyl-phenyl)-[5-(4-methyl-piperazin-1-ylmethyl)-1,3-dihydro-isoindol-2-yl]-methanone L-lactate]

Compound: O=S(=O)(NCCNCC=C(c1ccccc1)c1ccccc1)c1cccc2cnccc12 [NL-71-101]
IC50 (PKG): 36000 nM | IC50 (PKC): 104000 nM | apoptosis induction (OVCAR-3 tumour cells): induced apoptosis

Compound: CCN[C@H]1CO[C@@H](O[C@H]2[C@H](O[C@H]3C#C/C=C\C#C[C@]4(O)CC(=O)C(NC(=O)OC)=C3/C4=C\CSSSC)O[C@H](C)[C@@H](NO[C@H]3C[C@H](O)[C@H](SC(=O)c4c(C)c(I)c(O[C@@H]5O[C@@H](C)[C@H](O)[C@@H](OC)[C@H]5O)c(OC)c4OC)[C@@H](C)O3)[C@@H]2O)C[C@@H]1OC [Calicheamicin]
potency relative to adriamycin [3]: over 1,000 times

Compound: CC(C)c1cc(C(=O)N2Cc3ccc(C(=O)N4CCNCC4)cc3C2)c(O)cc1O [Example 54, (2,4-dihydroxy-5-isopropyl-phenyl)-[5-(piperazine-1-carbonyl)-1,3-dihydro-isoindol-2-yl]-methanone hydrochloride]
IC50 (HCT116 cell line): < 1000 nM

Compound: C/C(=C\c1csc(C)n1)[C@@H]1C[C@@H]2O[C@]2(C)CCC[C@H](C)[C@H](O)[C@@H](C)C(=O)C(C)(C)[C@@H](O)CC(=O)O1 [epothilone B]
potency in inducing tubulin polymerization in vitro (tubulin): approximately twice as potent as epothilone A or paclitaxel

hygroscopicity ([4]; lactate (particularly L-lactate) salt of 1-cyclopropyl-3-[3-(5-morpholin-4-ylmethyl-1H-benzoimidazol-2-yl)-1H-pyrazol-4-yl]-urea (compound (AA))): non-hygroscopic | solubility in water [4, 11]: good solubility in water | storage stability [4, 11]: stable to storage
Compound: CC(C)c1cc(C(=O)N2Cc3ccc(CN4CCN(C)CC4)cc3C2)c(O)cc1O [crystalline lactate salt, (2,4-dihydroxy-5-isopropyl-phenyl)-[5-(4-methyl-piperazin-1-ylmethyl)-1,3-dihydro-isoindol-2-yl]-methanone]

Compound: C/C1=C/C[C@@H](/C(C)=C/c2csc(C)n2)OC(=O)C[C@H](O)C(C)(C)C(=O)[C@H](C)[C@@H](O)[C@@H](C)CCC1 [desoxyepothilone B]
IC50 [5]: 17 nM

stability of crystalline form [1]: stable
Compound: CC(C)c1cc(C(=O)N2Cc3ccc(CN4CCN(C)CC4)cc3C2)c(O)cc1O [FL1, (2,4-dihydroxy-5-isopropyl-phenyl)-[5-(4-methyl-piperazin-1-ylmethyl)-1,3-dihydro-isoindol-2-yl]-methanone L-lactate]
Stability of crystal form [2]: stable in air and at 40 °C and 75% RH for at least one month

hygroscopicity ([1]; L-lactate of (2,4-dihydroxy-5-isopropyl-phenyl)-[5-(4-methyl-piperazin-1-ylmethyl)-1,3-dihydro-isoindol-2-yl]-methanone): non-hygroscopic
Compound: CC(C)c1cc(C(=O)N2Cc3ccc(CN4CCN(C)CC4)cc3C2)c(O)cc1O [(2,4-dihydroxy-5-isopropyl-phenyl)-[5-(4-methyl-piperazin-1-ylmethyl)-1,3-dihydro-isoindol-2-yl]-methanone]
rate of solubility ([1]; compared with free base and hydrochloric and sulphuric acid salts): better rate of solubility than the free base and other salts tested

Compound: 1-(2,6-difluorophenyl)-N-[3-(5-morpholin-4-ylmethyl-1H-benzimidazol-2-yl)-1H-pyrazol-4-yl]-urea [D-glucuronate]
solubility [6]: greater than 25 mg/ml

IC50 (HCT116 cell line): < 1000 nM
Compound: CC(C)c1cc(C(=O)N2Cc3ccccc3C2)c(O)cc1O [Example 5, (1,3-Dihydro-isoindol-2-yl)-(2,4-dihydroxy-5-isopropyl-phenyl)-methanone]

Compound: CCOC(=O)c1ccc2[nH]c3c(OC)c4[nH]c5ccc(C(=O)OCC)cc5c4cc3c2c1 [SR-13668]
adverse effects [7]: no adverse effects

Compound: CC1=C(/C=C/C(C)=C/C=C/C(C)=C/C(=O)O)C(C)(C)CCC1 [Tretinoin, all-trans retinoic acid]
remissions induced [8]: 64-100%

stability of crystalline form [1]: unstable | Stability of crystal form [2]: transforms in air into form FL1 | Crystal form by XRPD after drying in air ([2]; sample dried in air for 2 days): conversion to form FL1 had occurred
Compound: CC(C)c1cc(C(=O)N2Cc3ccc(CN4CCN(C)CC4)cc3C2)c(O)cc1O [FL3, (2,4-dihydroxy-5-isopropyl-phenyl)-[5-(4-methyl-piperazin-1-ylmethyl)-1,3-dihydro-isoindol-2-yl-]-methanone L-lactate]

Compound: CCCCCCCCCCCCCCCCCCOP(=O)([O-])OC1CC[N+](C)(C)CC1 [KRX-0401, Perifosine]
half-life [9]: ~100 h

solid-state stability in conditions of high relative humidity ([4]; lactate salt of compound (AA), gravimetric vapour sorption): stable anhydrous crystalline form
Compound: CC(C)c1cc(C(=O)N2Cc3ccc(CN4CCN(C)CC4)cc3C2)c(O)cc1O [lactate salt, (2,4-dihydroxy-5-isopropyl-phenyl)-[5-(4-methyl-piperazin-1-ylmethyl)-1,3-dihydro-isoindol-2-yl]-methanone]

Kd [10]: < 100 nM
Compound: CC(C)c1cc(C(=O)N2Cc3ccc(CN4CCN(C)CC4)cc3C2)c(O)cc1O [Example 55, (2,4-dihydroxy-5-isopropyl-phenyl)-[5-(4-methyl-piperazin-1-ylmethyl)-1,3-dihydro-isoindol-2-yl]-methanone]
